Test results: US11358977B2, “Deuterated pyridone amides and prodrugs thereof as modulators of sodium channels” (VERTEX PHARMACEUTICALS INCORPORATED, priority 2017, dated 2022)

How the values were obtained:
[1] = In vitro microsomal metabolic stability assay, dog; format: in vitro ADME; conditions: dog liver microsomes 0.25 mg/mL, 1.0 μM compound, NADPH
Procedure: (§1) Materials. Rat, Dog, Monkey and Human liver microsomes (20 mg/mL) were obtained from Xenotech, LLC (Lenexa, Kans.). P-nicotinamide adenine dinucleotide phosphate, reduced form (NADPH), magnesium chloride (MgCl2), and dimethyl sulfoxide (DMSO) were purchased from Sigma-Aldrich.
(§2) Methods. […] The 10 mM stock solutions were diluted to 100 μM in DMSO. In each cluster polypropylene tube, 190.7 μL of 100 mM phosphate buffer, pH 7.4 was added, then 2.5 μL of liver mocrosomes (20 mg/mL, rat, dog, monkey or human) was added, then a 2 μL aliquot of the 100 μM test compound was added, and the mixture was pre-warmed for 10 minutes. Reactions were initiated by addition of 4.8 μL of pre-warmed NADPH solution (100 mM in 100 mM phosphate buffer). The final reaction volume was 200 μL and contained 0.25 mg/mL rat, dog, monkey or human liver microsomes, 1.0 μM test compound, and 2.4 mM NADPH in 0.1 M potassium phosphate buffer, pH 7.4. The reaction mixtures were incubated at 37° C., and the reactions were quenched at 0, 15, 30 and 60 minutes by adding 200 μL of ice-cold quench solution (ACN:MeOH:0.1% formic acid in water 2:2:1) containing internal standard, n=3 per time point. The tubes were centrifuged and supernatants were analyzed for amounts of the test compound remaining by LC-MS/MS. The HPLC system included a Phenomenex Luna C8 column, 3 micron, 2 mm diameter×30 mm long eluted with a gradient mobile phase consisting of 0.1% formic acid in water or in acetonitrile. The analytes were detected by MS/MS with Electrospray Ionization (ESI) in the mode of multiple reaction monitoring (MRM). The injection volume was 10 μL.

[2] = In vitro microsomal metabolic stability assay, monkey; format: in vitro ADME; conditions: monkey liver microsomes 0.25 mg/mL, 1.0 μM compound, NADPH
Procedure: as §1, §2

[3] = In vitro microsomal metabolic stability assay, rat; format: in vitro ADME; conditions: rat liver microsomes 0.25 mg/mL, 1.0 μM compound, NADPH
Procedure: as §1, §2

[4] = In vitro microsomal metabolic stability assay, human; format: in vitro ADME; conditions: human liver microsomes 0.25 mg/mL, 1.0 μM compound, NADPH
Procedure: as §1, §2

[5] = In vivo pharmacokinetic study, rat IV; set-up: species or system Male Sprague Dawley rats
Procedure: General Procedures. Concentrations of the test compounds in plasma were determined using a high performance liquid chromatography/tandem mass spectrometry (HPLC/MS/MS) method. The test compounds along with the internal standard (IS) were extracted from plasma (20 μL) by direct protein precipitation with acetonitrile (1:25 ratio of plasma/acetonitrile). After centrifugation, the supernatant extract (10 μL) was injected onto the LC/MS/MS system. The HPLC system included a Phenomenex Luna C8 column, 3 micron, 2 mm diameter×30 mm long eluted with a gradient mobile phase consisting of 0.1% formic acid in water or in acetonitrile. The analytes were detected by MS/MS with Electrospray Ionization (ESI) in the mode of multiple reaction monitoring (MRM). The lower limit of quantitation (LLOQ) was 1.00 ng/mL. The linear range of the assay was from 1 to 3000 ng/mL. The assay accuracy was within 20% of the nominal values.
Plasma concentration-time profiles of the test compounds were analyzed by noncompartmental pharmacokinetic methods using PK module in Watson, Version 7.4.2 (Thermo Scientific). Pharmacokinetic parameters including AUCa11, AUC0-∞, C0, Cl, Vss and t1/2 were determined.
Descriptive statistical data of plasma concentrations and pharmacokinetic parameter estimates were calculated, including the mean, standard deviation (SD), and coefficient of variation (% CV) using Microsoft Excel 2010.
Rat IV Study. Compounds 7 and 10 were administered simultaneously in a single intravenous bolus to Male Sprague Dawley rats (n=3) via jugular cannula. The nominal dose of each compound was 0.5 mg/kg. The cassette dosing solution was formulated in D5W with additives Animals had free access to food and water before and after dosing. Blood samples (approximately 0.25 mL each) were collected via a carotid artery catheter prior to dosing and at 0 (predose), 5 min, 10 min, 0.25, 0.5, 1, 2, 4, 8, 12, 24 hours post dose. Each blood sample was collected into a tube that was kept on wet ice and contained potassium EDTA as the anticoagulant. Plasma was separated and stored at approximately −70° C. until analysis.
Plasma samples and dosing solutions were analyzed using a liquid chromatography/tandem mass spectrometry (LC/MS/MS) method to determine the concentrations of Compounds 7 and 10 with a lower limit of quantitation (LLOQ) of 1.00 ng/mL. The average plasma concentrations of Compounds 7 and 10 are plotted in FIG. 5 and are also presented in tabular form in Table 5.
Plasma concentration vs. time data were subjected to noncompartmental pharmacokinetic (PK) analysis. To determined the measured dose of each compound, the dose formulation (50 μL) was aliquoted into a cluster tube at the time of dosing. Then 450 μL of DMSO was added to the tube to dilute it 10×. Then the diluted dosing solution was spiked into rat blank plasma with 100× dilution. The resulting plasma sample was analyzed along with the plasma samples collected from rats that were dosed with the compounds, using the same LC/MS/MS method.

[6] = male, Sprague Dawley, plasma, rat IV bolus, cassette, nominal 0.5 mg/kg, noncompartmental analysis

## [2H]C([2H])([2H])c1cc(F)ccc1Oc1cc(C(F)(F)F)ccc1C(=O)Nc1cc[nH]c(=O)c1 [Compound 7, 2-(4-fluoro-2-(methyl-d3)phenoxy)-N-(2-oxo-1,2-dihydropyridin-4-yl)-4-(trifluoromethyl)benzamide]
[1]; 0 min
  % remaining: 100%
[1]; 15 min
  % remaining: 86.1%
[1]; 30 min
  % remaining: 85.8%
[1]; 60 min
  % remaining: 87.5%
[2]; 0 min
  % remaining: 100%
[2]; 15 min
  % remaining: 97.0%
[2]; 30 min
  % remaining: 93.3%
[2]; 60 min
  % remaining: 92.5%
[3]; 0 min
  % remaining: 100%
[3]; 15 min
  % remaining: 109%
[3]; 30 min
  % remaining: 105%
[3]; 60 min
  % remaining: 92.2%
[4]; 0 min
  % remaining: 100%
[4]; 15 min
  % remaining: 109%
[4]; 30 min
  % remaining: 105%
[4]; 60 min
  % remaining: 106%
[5]; in rats, IV
  clearance compared with Compound 10: lower
  t1/2 compared with Compound 10: longer
[5]; male, Sprague Dawley, plasma, rat IV bolus, cassette, nominal 0.5 mg/kg, 0.083 hours
  concentration at 0.083 h: 420 ng/mL
[5]; male, Sprague Dawley, plasma, rat IV bolus, cassette, nominal 0.5 mg/kg, 0.167 hours
  concentration at 0.167 h: 399 ng/mL
[5]; male, Sprague Dawley, plasma, rat IV bolus, cassette, nominal 0.5 mg/kg, 0.25 hours
  concentration at 0.25 h: 371 ng/mL
[5]; male, Sprague Dawley, plasma, rat IV bolus, cassette, nominal 0.5 mg/kg, 0.5 hours
  concentration at 0.5 h: 301 ng/mL
[5]; male, Sprague Dawley, plasma, rat IV bolus, cassette, nominal 0.5 mg/kg, 1 hour
  concentration at 1 h: 256 ng/mL
[5]; male, Sprague Dawley, plasma, rat IV bolus, cassette, nominal 0.5 mg/kg, 2 hours
  concentration at 2 h: 208 ng/mL
[5]; male, Sprague Dawley, plasma, rat IV bolus, cassette, nominal 0.5 mg/kg, 4 hours
  concentration at 4 h: 154 ng/mL
[5]; male, Sprague Dawley, plasma, rat IV bolus, cassette, nominal 0.5 mg/kg, 8 hours
  concentration at 8 h: 91.3 ng/mL
[5]; male, Sprague Dawley, plasma, rat IV bolus, cassette, nominal 0.5 mg/kg, 12 hours
  concentration at 12 h: 47.6 ng/mL
[5]; male, Sprague Dawley, plasma, rat IV bolus, cassette, nominal 0.5 mg/kg, 24 hours
  concentration at 24 h: 7.57 ng/mL
[5]; [6]
  AUC: 937 ng·h/mL
  AUC(0-inf): 961 ng·h/mL
  C0: 211 ng/mL
  clearance: 8.07 mL/min/kg
  half-life: 4.4 h
[5]; male, Sprague Dawley, plasma, rat IV bolus, cassette, nominal 0.5 mg/kg, noncompartmental analysis, read-out: Vss
  Vd: 3 L/kg
